Measurements from ChEMBL document CHEMBL5653596, “A novel small molecule met inhibitor induces apoptosis in cells transformed by the oncogenic TPR-MET tyrosine kinase” (Cancer Res, 2003).
Activity calls are given as the source filed them. The rule behind the calls is not given here.

What was measured:
[1] = tested on: NCI-H69; test: Growth inhibition of human NCI-H69 cells in presence of HGF measured after 72 hrs by 3-(4,5 dimethylthiazol-2-yl)-2,5-diphenyltetrazolium bromide assay; type: functional, cell-based
[2] = tested on: BaF3; test: Inhibition of cell growth in mouse BaF3 cells transfected with TPR-MET genes in presence of interleukin 3 at 1 uM measured after 3 days by 3-(4,5-dimethylthiazol-2-yl)-2,5-diphenyltetrazolium bromide assay; type: functional, cell-based; settings: time 3.0 day
[3] = tested on: BaF3; test: Inhibition of Serine phosphorylation of AKT at Ser473 in mouse BaF3 cells transfected with TPR-MET genes at 0.2 to 5 uM by immunoblotting analysis; type: cell-based; settings: dose 0.2-5 µM
[4] = tested on: NCI-H345; test: Growth inhibition of human NCI-H345 cells in presence of HGF measured after 72 hrs by 3-(4,5 dimethylthiazol-2-yl)-2,5-diphenyltetrazolium bromide assay; type: functional, cell-based
[5] = target: T1, Hepatocyte growth factor receptor (Homo sapiens, UniProt P08581); test: Inhibition of glutathione S-transferase fused Met (unknown origin) catalytic activity infected in Sf9 cells using poly-Glu-Tyr (4:1) as substrate
[6] = tested on: BaF3; test: Inhibition of […] phosphorylation of AKT at […] in mouse BaF3 cells transfected with TPR-MET genes at 0.2 to 5 uM by immunoblotting analysis; type: cell-based; settings: dose 0.2-5 µM
[7] = tested on: BaF3; test: Induction of cell cycle arrest in mouse BaF3 cells transfected with TPR-MET genes assessed as cells accumulation at S phase at 1 uM by fluorescence-activated cell sorter analysis (reference value: 45.4%); type: functional
[8] = tested on: BaF3; test: Induction of cell cycle arrest in mouse BaF3 cells transfected with TPR-MET genes assessed as cells accumulation at G2/M phase at 5 uM by fluorescence-activated cell sorter analysis (reference value: 12.2%); type: functional
[9] = tested on: BaF3; test: Induction of cell cycle arrest in mouse BaF3 cells transfected with TPR-MET genes assessed as cells accumulation at G1 phase at 5 uM by fluorescence-activated cell sorter analysis (reference value: 42.4%); type: functional
[10] = tested on: BaF3; test: Induction of apoptosis in mouse BaF3 cells transfected with TPR-MET genes assessed as necrotic cells at 1 uM measured after 18 hrs by annexin V and propidium iodide staining based flow cytometry assay (reference value: 0.1%); type: functional
[11] = tested on: BaF3; test: Induction of cell cycle arrest in mouse BaF3 cells transfected with TPR-MET genes assessed as cells accumulation at S phase at 5 uM by fluorescence-activated cell sorter analysis (reference value: 45.4%); type: functional
[12] = target: Hepatocyte growth factor receptor (Mus musculus) (UniProt P16056); test: Inhibition of Met autophosphorylation at Tyr361/365/366 in mouse BaF3 cells at 5 uM by immunoblotting analysis; type: cell-based
[13] = target: Platelet-derived growth factor receptor beta (Homo sapiens, UniProt P09619); test: Inhibition of glutathione S-transferase fused PDGFbetaR (unknown origin) catalytic activity infected in Sf9 cells using poly-Glu-Tyr (4:1) as substrate
[14] = target: T2, Fibroblast growth factor receptor 1 (Homo sapiens, UniProt P11362); test: Inhibition of glutathione S-transferase fused FGFR1 (unknown origin) catalytic activity infected in Sf9 cells using poly-Glu-Tyr (4:1) as substrate at 0.02 uM relative to control
Target sequence in this assay (P11362 22-822 limits assumed): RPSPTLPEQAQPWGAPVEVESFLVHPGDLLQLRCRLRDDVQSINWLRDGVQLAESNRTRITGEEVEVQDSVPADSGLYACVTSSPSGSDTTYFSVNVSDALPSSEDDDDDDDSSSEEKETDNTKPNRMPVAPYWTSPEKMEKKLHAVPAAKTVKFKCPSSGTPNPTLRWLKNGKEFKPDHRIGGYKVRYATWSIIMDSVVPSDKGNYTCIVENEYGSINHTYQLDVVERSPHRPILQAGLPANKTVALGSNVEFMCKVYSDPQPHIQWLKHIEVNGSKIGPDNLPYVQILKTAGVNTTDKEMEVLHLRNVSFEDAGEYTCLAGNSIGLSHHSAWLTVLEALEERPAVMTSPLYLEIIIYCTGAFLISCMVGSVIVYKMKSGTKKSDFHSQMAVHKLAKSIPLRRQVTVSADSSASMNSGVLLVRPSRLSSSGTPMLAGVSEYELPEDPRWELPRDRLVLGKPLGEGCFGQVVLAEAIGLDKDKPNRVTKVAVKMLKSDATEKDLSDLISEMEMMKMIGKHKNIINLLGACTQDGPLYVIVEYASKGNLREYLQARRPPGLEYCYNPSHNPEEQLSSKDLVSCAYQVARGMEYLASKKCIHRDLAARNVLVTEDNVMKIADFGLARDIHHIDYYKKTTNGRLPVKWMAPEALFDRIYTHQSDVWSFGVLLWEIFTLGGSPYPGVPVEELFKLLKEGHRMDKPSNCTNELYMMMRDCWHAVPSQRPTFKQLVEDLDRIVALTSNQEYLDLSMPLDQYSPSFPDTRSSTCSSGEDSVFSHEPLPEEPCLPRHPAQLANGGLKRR

[15] = tested on: BaF3; test: Inhibition of cell growth in mouse BaF3 cells transfected with TPR-MET genes in presence of interleukin 3 at 1 uM by 3-(4,5-dimethylthiazol-2-yl)-2,5-diphenyltetrazolium bromide assay; type: functional, cell-based
[16] = target: Cyclin-dependent kinase 2 (Homo sapiens, UniProt P24941); test: Inhibition of glutathione S-transferase fused CDK2 (unknown origin) catalytic activity infected in Sf9 cells using poly-Glu-Tyr (4:1) as substrate
[17] = target: T1, Hepatocyte growth factor receptor; test: Inhibition of HGF-dependent Met (unknown origin) phosphorylation
[18] = tested on: BaF3; test: Inhibition of migration of mouse BaF3 cells at 1 uM measured after 4 hrs by spontaneous transwell migration assay relative to control; type: functional
[19] = tested on: BaF3; test: Inhibition of cell growth in mouse BaF3 cells in presence of interleukin 3 at 1 uM measured after 3 days by 3-(4,5-dimethylthiazol-2-yl)-2,5-diphenyltetrazolium bromide assay; type: functional, cell-based; settings: time 3.0 day
[20] = target: Proto-oncogene tyrosine-protein kinase Src (Homo sapiens, UniProt P12931); test: Inhibition of glutathione S-transferase fused c-Src (unknown origin) catalytic activity infected in Sf9 cells using poly-Glu-Tyr (4:1) as substrate
[21] = tested on: BaF3; test: Inhibition of cell growth in mouse BaF3 cells transfected with TPR-MET genes by 3-(4,5-dimethylthiazol-2-yl)-2,5-diphenyltetrazolium bromide assay; type: functional, cell-based
[22] = tested on: BaF3; test: Induction of cell cycle arrest in mouse BaF3 cells transfected with TPR-MET genes assessed as cells accumulation at G1 phase at 1 uM by fluorescence-activated cell sorter analysis (reference value: 42.4%); type: functional
[23] = tested on: BaF3; test: Reduction in tyrosine phosphorylation of cellular proteins in mouse BaF3 cells transfected with TPR-MET genes by immunoblotting analysis; type: functional, cell-based; settings: dose 0.2-5 µM
[24] = tested on: BaF3; test: Inhibition of migration of mouse BaF3 cells measured after 4 hrs by spontaneous transwell migration assay; type: functional, cell-based; settings: dose 0.2-5 µM
[25] = target: T2, Fibroblast growth factor receptor 1; test: Inhibition of glutathione S-transferase fused FGFR1 (unknown origin) catalytic activity infected in Sf9 cells using poly-Glu-Tyr (4:1) as substrate
[26] = tested on: BaF3; test: Inhibition of cell growth in mouse BaF3 cells transfected with TPR-MET genes at 0.01 to 10 uM by 3-(4,5-dimethylthiazol-2-yl)-2,5-diphenyltetrazolium bromide assay; type: functional, cell-based; settings: dose 0.01-10 µM
[27] = target: Angiopoietin-1 receptor (Homo sapiens, UniProt Q02763); test: Inhibition of glutathione S-transferase fused Tie2 (unknown origin) catalytic activity infected in Sf9 cells using poly-Glu-Tyr (4:1) as substrate
[28] = tested on: BaF3; test: Inhibition of migration of mouse BaF3 cells at 5 uM measured after 4 hrs by spontaneous transwell migration assay relative to control; type: functional
[29] = tested on: BaF3; test: Induction of apoptosis in mouse BaF3 cells transfected with TPR-MET genes assessed as late apoptotic cells at 1 uM measured after 18 hrs by annexin V and propidium iodide staining based flow cytometry assay (reference value: 3.8%); type: functional
[30] = tested on: BaF3; test: Induction of cell cycle arrest in mouse BaF3 cells transfected with TPR-MET genes assessed as cells accumulation at G2/M phase at 1 uM by fluorescence-activated cell sorter analysis (reference value: 12.2%); type: functional
[31] = tested on: BaF3; test: Induction of cell cycle arrest in mouse BaF3 cells transfected with TPR-MET genes assessed as cells accumulation at G2/M phase at 0.2 uM by fluorescence-activated cell sorter analysis (reference value: 12.2%); type: functional
[32] = target: Vascular endothelial growth factor receptor 2 (Homo sapiens, UniProt P35968); test: Inhibition of glutathione S-transferase fused Flk1 (unknown origin) catalytic activity infected in Sf9 cells using poly-Glu-Tyr (4:1) as substrate
[33] = tested on: BaF3; test: Inhibition of cell growth in mouse BaF3 cells transfected with TEL-ABL genes at 1 uM measured after 18 hrs by 3-(4,5-dimethylthiazol-2-yl)-2,5-diphenyltetrazolium bromide assay; type: functional, cell-based
[34] = tested on: BaF3; test: Inhibition of cell growth in mouse BaF3 cells transfected with BCR-ABL genes in presence of interleukin 3 at 1 uM measured after 18 hrs by 3-(4,5-dimethylthiazol-2-yl)-2,5-diphenyltetrazolium bromide assay; type: functional, cell-based
[35] = target: Hepatocyte growth factor receptor (Mus musculus) (UniProt P16056); test: Inhibition of Met autophosphorylation at Tyr480 in mouse BaF3 cells at 5 uM by immunoblotting analysis; type: cell-based
[36] = tested on: BaF3; test: Inhibition of cell growth in mouse BaF3 cells transfected with BCR-ABL genes at 1 uM measured after 18 hrs by 3-(4,5-dimethylthiazol-2-yl)-2,5-diphenyltetrazolium bromide assay; type: functional, cell-based
[37] = tested on: BaF3; test: Induction of apoptosis in mouse BaF3 cells transfected with TPR-MET genes assessed as viable cells at 1 uM measured after 18 hrs by annexin V and propidium iodide staining based flow cytometry assay (reference value: 93.6%); type: functional; settings: read-out: Activity
[38] = target: Hepatocyte growth factor receptor (Mus musculus) (UniProt P16056); test: Inhibition of Met autophosphorylation at Tyr496 in mouse BaF3 cells at 5 uM by immunoblotting analysis; type: cell-based
[39] = tested on: BaF3; test: Inhibition of cell growth in mouse BaF3 cells transfected with TPR-MET genes at 1 uM measured after 3 days by 3-(4,5-dimethylthiazol-2-yl)-2,5-diphenyltetrazolium bromide assay; type: functional; settings: BaF3, 72 h, time 3 day
[40] = tested on: BaF3; test: Inhibition of cell growth in mouse BaF3 cells transfected with TEL-PDGFbetaR genes at 1 uM measured after 18 hrs by 3-(4,5-dimethylthiazol-2-yl)-2,5-diphenyltetrazolium bromide assay; type: functional, cell-based
[41] = target: Epidermal growth factor receptor (Homo sapiens, UniProt P00533); test: Inhibition of glutathione S-transferase fused EGFR (unknown origin) catalytic activity infected in Sf9 cells using poly-Glu-Tyr (4:1) as substrate
[42] = tested on: BaF3; test: Inhibition of Serine phosphorylation of FKHR at Ser256 in mouse BaF3 cells transfected with TPR-MET genes at 0.2 to 5 uM by immunoblotting analysis; type: cell-based; settings: dose 0.2-5 µM
[43] = tested on: BaF3; test: Induction of cell cycle arrest in mouse BaF3 cells transfected with TPR-MET genes assessed as cells accumulation at G1 phase at 0.2 uM by fluorescence-activated cell sorter analysis (reference value: 42.4%); type: functional
[44] = tested on: BaF3; test: Inhibition of cell growth in mouse BaF3 cells transfected with BCR-ABL genes in presence of interleukin 3 at 1 uM measured after 3 days by 3-(4,5-dimethylthiazol-2-yl)-2,5-diphenyltetrazolium bromide assay; type: functional, cell-based; settings: time 3.0 day
[45] = tested on: BaF3; test: Induction of apoptosis in mouse BaF3 cells transfected with TPR-MET genes assessed as total apoptotic cells at 1 uM measured after 18 hrs by annexin V and propidium iodide staining based flow cytometry assay (reference value: 5%); type: functional
[46] = tested on: BaF3; test: Inhibition of cell growth in mouse BaF3 cells transfected with TEL-JAK2 genes at 1 uM measured after 18 hrs by 3-(4,5-dimethylthiazol-2-yl)-2,5-diphenyltetrazolium bromide assay; type: functional, cell-based
[47] = tested on: BaF3; test: Induction of apoptosis in mouse BaF3 cells transfected with TPR-MET genes assessed as early apoptotic cells at 1 uM measured after 18 hrs by annexin V and propidium iodide staining based flow cytometry assay (reference value: 2.5%); type: functional
[48] = tested on: BaF3; test: Induction of cell cycle arrest in mouse BaF3 cells transfected with TPR-MET genes assessed as cells accumulation at S phase at 0.2 uM by fluorescence-activated cell sorter analysis (reference value: 45.4%); type: functional
[49] = tested on: BaF3; test: Inhibition of Serine phosphorylation of GSK3beta at Ser21/9 in mouse BaF3 cells transfected with TPR-MET genes at 0.2 to 5 uM by immunoblotting analysis; type: cell-based; settings: dose 0.2-5 µM

Hepatocyte growth factor receptor (Mus musculus), sequence (P16056 whole entry, the tested form may be a part): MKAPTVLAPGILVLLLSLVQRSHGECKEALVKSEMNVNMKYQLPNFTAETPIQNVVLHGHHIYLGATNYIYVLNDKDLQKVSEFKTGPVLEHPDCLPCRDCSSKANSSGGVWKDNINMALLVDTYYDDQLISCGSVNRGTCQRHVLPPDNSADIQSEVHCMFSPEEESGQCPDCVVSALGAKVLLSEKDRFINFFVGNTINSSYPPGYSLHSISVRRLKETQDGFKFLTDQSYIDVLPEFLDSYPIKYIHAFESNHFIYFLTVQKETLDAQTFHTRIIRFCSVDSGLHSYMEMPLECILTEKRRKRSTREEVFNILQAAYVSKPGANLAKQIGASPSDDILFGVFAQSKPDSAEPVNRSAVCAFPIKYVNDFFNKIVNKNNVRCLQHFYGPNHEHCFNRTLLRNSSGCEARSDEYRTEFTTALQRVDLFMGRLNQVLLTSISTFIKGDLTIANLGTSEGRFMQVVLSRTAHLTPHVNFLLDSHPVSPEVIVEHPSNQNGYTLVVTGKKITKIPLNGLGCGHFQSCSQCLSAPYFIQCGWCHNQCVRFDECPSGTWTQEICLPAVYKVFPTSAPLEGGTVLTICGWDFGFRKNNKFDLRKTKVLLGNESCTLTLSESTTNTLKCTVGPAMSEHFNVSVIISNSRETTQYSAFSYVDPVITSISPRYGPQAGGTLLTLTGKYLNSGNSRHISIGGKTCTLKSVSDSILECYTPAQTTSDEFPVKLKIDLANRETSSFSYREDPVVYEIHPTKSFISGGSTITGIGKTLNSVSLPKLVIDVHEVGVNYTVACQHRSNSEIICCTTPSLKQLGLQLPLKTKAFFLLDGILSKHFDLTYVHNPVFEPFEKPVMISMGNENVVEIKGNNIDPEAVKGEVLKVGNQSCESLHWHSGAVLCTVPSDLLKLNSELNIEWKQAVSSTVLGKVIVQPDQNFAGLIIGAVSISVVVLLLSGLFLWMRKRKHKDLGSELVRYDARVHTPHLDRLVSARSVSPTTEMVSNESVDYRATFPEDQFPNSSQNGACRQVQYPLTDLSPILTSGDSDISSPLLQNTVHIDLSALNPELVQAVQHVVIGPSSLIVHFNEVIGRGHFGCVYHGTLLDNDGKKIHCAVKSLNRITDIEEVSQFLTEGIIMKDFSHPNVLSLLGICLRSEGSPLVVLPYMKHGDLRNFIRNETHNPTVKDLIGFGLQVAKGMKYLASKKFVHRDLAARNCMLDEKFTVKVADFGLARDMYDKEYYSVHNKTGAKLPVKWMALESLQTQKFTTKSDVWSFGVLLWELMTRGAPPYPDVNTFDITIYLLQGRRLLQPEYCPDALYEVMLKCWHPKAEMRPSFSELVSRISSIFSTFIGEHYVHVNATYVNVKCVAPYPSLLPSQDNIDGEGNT
T1 sequence (P08581 whole entry, the tested form may be a part): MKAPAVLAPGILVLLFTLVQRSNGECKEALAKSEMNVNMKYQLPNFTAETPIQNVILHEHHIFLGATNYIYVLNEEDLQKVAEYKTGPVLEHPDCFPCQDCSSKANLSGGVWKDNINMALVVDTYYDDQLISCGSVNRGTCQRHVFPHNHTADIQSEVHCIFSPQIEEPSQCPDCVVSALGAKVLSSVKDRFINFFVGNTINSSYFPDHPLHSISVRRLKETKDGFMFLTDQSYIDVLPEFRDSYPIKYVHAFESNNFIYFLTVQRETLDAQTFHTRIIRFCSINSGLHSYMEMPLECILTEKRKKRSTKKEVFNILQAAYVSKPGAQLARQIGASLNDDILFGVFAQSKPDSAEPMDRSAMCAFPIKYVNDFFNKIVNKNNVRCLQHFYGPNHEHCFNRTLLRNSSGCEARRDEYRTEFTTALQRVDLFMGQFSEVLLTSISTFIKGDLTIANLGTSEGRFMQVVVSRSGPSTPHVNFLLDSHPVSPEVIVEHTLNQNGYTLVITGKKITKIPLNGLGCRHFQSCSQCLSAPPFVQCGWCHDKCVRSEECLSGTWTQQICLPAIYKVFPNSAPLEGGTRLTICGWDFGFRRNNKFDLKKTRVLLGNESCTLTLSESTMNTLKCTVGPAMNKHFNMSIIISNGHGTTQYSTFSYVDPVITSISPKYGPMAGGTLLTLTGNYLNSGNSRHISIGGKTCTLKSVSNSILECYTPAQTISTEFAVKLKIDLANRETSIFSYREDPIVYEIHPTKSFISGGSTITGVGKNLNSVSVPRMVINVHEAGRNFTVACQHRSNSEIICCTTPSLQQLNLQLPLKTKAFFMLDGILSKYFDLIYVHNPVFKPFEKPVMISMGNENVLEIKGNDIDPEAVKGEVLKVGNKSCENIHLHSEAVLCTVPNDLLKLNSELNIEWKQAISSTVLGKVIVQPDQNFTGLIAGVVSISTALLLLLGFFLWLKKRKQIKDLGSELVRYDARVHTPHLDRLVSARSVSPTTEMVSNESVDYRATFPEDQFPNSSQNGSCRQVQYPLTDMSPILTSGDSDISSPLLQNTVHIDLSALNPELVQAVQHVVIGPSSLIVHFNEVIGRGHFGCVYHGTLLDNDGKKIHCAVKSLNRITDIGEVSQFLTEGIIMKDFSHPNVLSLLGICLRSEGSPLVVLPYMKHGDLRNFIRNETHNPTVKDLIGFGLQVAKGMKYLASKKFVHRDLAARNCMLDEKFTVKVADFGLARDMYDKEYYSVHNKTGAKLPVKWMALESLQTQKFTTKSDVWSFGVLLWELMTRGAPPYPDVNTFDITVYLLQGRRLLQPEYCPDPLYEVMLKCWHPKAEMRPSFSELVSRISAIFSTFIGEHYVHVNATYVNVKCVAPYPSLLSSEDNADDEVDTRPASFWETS
Vascular endothelial growth factor receptor 2, sequence (P35968 whole entry, the tested form may be a part): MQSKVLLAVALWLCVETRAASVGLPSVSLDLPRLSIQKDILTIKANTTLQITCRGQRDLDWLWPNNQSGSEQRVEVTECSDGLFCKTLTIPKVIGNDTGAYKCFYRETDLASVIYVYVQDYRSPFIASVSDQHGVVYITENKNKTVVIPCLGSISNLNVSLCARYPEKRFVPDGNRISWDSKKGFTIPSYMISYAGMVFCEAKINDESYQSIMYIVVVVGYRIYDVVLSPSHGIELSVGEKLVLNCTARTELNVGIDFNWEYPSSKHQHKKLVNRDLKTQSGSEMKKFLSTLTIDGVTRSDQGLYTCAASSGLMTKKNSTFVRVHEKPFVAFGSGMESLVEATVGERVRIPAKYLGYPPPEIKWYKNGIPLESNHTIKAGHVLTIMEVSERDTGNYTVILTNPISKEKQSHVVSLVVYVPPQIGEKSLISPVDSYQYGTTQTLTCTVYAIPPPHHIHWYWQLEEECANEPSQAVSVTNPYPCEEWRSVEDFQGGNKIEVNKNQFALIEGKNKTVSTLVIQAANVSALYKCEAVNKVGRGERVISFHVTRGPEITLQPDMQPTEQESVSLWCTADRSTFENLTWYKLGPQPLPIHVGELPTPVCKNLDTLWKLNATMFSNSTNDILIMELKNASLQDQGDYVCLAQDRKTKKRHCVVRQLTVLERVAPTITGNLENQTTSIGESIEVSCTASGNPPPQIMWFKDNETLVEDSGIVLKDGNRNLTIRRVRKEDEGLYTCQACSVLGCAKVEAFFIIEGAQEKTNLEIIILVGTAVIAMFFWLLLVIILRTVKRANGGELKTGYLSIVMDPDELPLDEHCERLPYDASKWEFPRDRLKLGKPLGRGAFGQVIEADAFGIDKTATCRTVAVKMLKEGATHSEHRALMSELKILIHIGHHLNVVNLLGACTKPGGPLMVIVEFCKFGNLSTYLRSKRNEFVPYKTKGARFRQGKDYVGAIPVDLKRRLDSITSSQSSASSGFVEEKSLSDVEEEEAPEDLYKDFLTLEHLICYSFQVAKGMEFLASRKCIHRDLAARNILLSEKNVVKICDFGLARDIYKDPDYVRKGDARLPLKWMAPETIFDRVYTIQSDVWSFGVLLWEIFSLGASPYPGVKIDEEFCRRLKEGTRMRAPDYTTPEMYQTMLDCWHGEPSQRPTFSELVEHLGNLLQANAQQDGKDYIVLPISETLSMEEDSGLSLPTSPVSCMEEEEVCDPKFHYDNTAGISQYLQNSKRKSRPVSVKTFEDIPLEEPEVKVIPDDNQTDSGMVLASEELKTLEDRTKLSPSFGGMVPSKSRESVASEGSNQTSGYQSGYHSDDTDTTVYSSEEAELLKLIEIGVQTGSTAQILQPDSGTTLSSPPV

IC50 [5]: 20 nM | inhibition [12]: Active | IC50 [13]: > 20 µM | inhibition [14]: 2% | IC50 [16]: > 10 µM | IC50 [17]: 1000 nM | IC50 [20]: > 10 µM | IC50 [21]: < 3000 nM | IC50 [25]: 9.7 µM | IC50 [27]: > 100 µM | IC50 [32]: 1300 nM | inhibition [35]: Active | inhibition [38]: Active | IC50 [41]: > 100 µM
SMILES: Cc1[nH]c(/C=C2/C(=O)Nc3ccc(S(=O)(=O)N(C)c4cccc(Cl)c4)cc32)c(C)c1C(=O)N1CCN(C)CC1
inhibition [1]: Dose-Dependent Effect | inhibition [2]: inactive | inhibition [3]: Active | inhibition [4]: Dose-Dependent Effect | inhibition [6]: Active | Activity [7]: 29.8% | Activity [8]: 8.3% | Activity [9]: 13.4% | Activity [10]: 1.1% | Activity [11]: 21.1% | inhibition [15]: Active | inhibition at 1 µM [18]: 44.8% | inhibition [19]: inactive | Activity [22]: 40% | inhibition [23]: Dose-Dependent Effect | inhibition [24]: Dose-Dependent Effect | inhibition [26]: Dose-Dependent Effect | inhibition at 5 µM [28]: 80% | Activity [29]: 17.2% | Activity [30]: 6% | Activity [31]: 13.4% | inhibition [33]: inactive | inhibition [34]: inactive | inhibition [36]: inactive | viability at 1 µM [37]: 70.3% | inhibition at 1 µM [39]: 100% | inhibition [40]: inactive | inhibition [42]: Active | Activity [43]: 46.6% | inhibition [44]: inactive | Activity [45]: 24% | inhibition [46]: inactive | Activity [47]: 11.3% | Activity [48]: 40% | inhibition [49]: Active
